Experimental data as given in PubChem BioAssay AID2060891 (Molecular Pharmacology Branch, DTP, NCI, 2025).

Tested on: K98450-129-R-PDC complex spheroid growth, percent test/control
Assay: Anticancer human tumor K98450-129-R-PDC patient-derived colon adenocarcinoma cell line growth inhibition [RAS]
Conditions: for IC50: curve of first compound; for viability, T/C: stronger effect = lower value
In short: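 Multi-cell-type spheroids: tumor cells plus HUVEC endothelial cells and mesenchymal stem cells. RAS-pathway inhibitors were combined with targeted agents, each dosed in half-log steps down from clinical Cmax, or from 10 microM when Cmax was unknown.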

[1] = second compound 0.000949 µM, first compound 0.0316 µM
[2] = second compound 0.000949 µM, first compound 0.1 µM
[3] = second compound 0.000949 µM, first compound 0.316 µM
[4] = second compound 0.000949 µM, first compound 1 µM
[5] = second compound 0.003 µM, first compound 0.0316 µM
[6] = second compound 0.003 µM, first compound 0.1 µM
[7] = second compound 0.003 µM, first compound 0.316 µM
[8] = second compound 0.003 µM, first compound 1 µM
[9] = second compound 0.00949 µM, first compound 0.0316 µM
[10] = second compound 0.00949 µM, first compound 0.1 µM
[11] = second compound 0.00949 µM, first compound 0.316 µM
[12] = second compound 0.00949 µM, first compound 1 µM
[13] = second compound 0.03 µM, first compound 0.0316 µM
[14] = second compound 0.03 µM, first compound 0.1 µM
[15] = second compound 0.03 µM, first compound 0.316 µM
[16] = second compound 0.03 µM, first compound 1 µM
[17] = second compound 0.0949 µM, first compound 0.0316 µM
[18] = second compound 0.0949 µM, first compound 0.1 µM
[19] = second compound 0.0949 µM, first compound 0.316 µM
[20] = second compound 0.0949 µM, first compound 1 µM
[21] = second compound 0.3 µM, first compound 0.0316 µM
[22] = second compound 0.3 µM, first compound 0.1 µM
[23] = second compound 0.3 µM, first compound 0.316 µM
[24] = second compound 0.3 µM, first compound 1 µM
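Further: spheroids exposed to agents for seven days before the viability readout.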
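Wherever viability, T/C is given: luminescence used as a proxy for viable cell amount.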

Question: For `CC1(O)CCCC1n1c(=O)c(C(F)F)cc2cnc(NC3CCN(S(C)(=O)=O)CC3)nc21` (centres undefined) + CCn1c(-c2cccnc2C(C)OC)c2c3cc(ccc31)N1CCOC(CC(NC(=O)C(C(C)C)N(C)C(=O)C3(F)CCN(C(=O)C#CC(C)(C)N(C)C)CC3)C(=O)N3CCCC(N3)C(=O)OCC(C)(C)C2)C1, which IC50 (second compound 0.000949 µM) is on record?
Answer: Its IC50 is 4.32 µM.

Question: And the IC50 (second compound 0.003 µM)?
Answer: The IC50 was 0.376 µM.

Question: And the IC50 (second compound 0.00949 µM)?
Answer: Its IC50 is < 0.0316 µM.

Question: And the IC50 (second compound 0.03 µM)?
Answer: Its IC50 is < 0.0316 µM.

Question: And the IC50 (second compound 0.0949 µM)?
Answer: Its IC50 is < 0.0316 µM.

Question: What about the IC50 (second compound 0.3 µM) of the same compound?
Answer: The IC50 was < 0.0316 µM.

Question: What about the viability, T/C [1] of the same compound?
Answer: The viability, T/C was 76.1%.

Question: What about the viability, T/C [2] of the same compound?
Answer: The viability, T/C was 64%.

Question: And the viability, T/C [3]?
Answer: The viability, T/C was 68.3%.

Question: What about the viability, T/C [4] of the same compound?
Answer: Its viability, T/C is 59.1%.

Question: What about the viability, T/C (second compound 0.000949 µM, first compound 3.16 µM) of the same compound?
Answer: Its viability, T/C is 51.5%.

Question: And the viability, T/C (second compound 0.000949 µM, first compound 10 µM)?
Answer: Its viability, T/C is 44.4%.

Question: What about the viability, T/C [5] of the same compound?
Answer: The viability, T/C was 58.2%.

Question: And the viability, T/C [6]?
Answer: Its viability, T/C is 55.6%.

Question: What about the viability, T/C [7] of the same compound?
Answer: The viability, T/C was 52.6%.

Question: What about the viability, T/C [8] of the same compound?
Answer: Its viability, T/C is 38.6%.

Question: What about the viability, T/C (second compound 0.003 µM, first compound 3.16 µM) of the same compound?
Answer: The viability, T/C was 34.7%.

Question: What about the viability, T/C (second compound 0.003 µM, first compound 10 µM) of the same compound?
Answer: Its viability, T/C is 31%.

Question: What about the viability, T/C [9] of the same compound?
Answer: Its viability, T/C is 44.8%.

Question: What about the viability, T/C [10] of the same compound?
Answer: The viability, T/C was 38.5%.

Question: What about the viability, T/C [11] of the same compound?
Answer: Its viability, T/C is 38.3%.

Question: What about the viability, T/C [12] of the same compound?
Answer: The viability, T/C was 28.5%.

Question: And the viability, T/C (second compound 0.00949 µM, first compound 3.16 µM)?
Answer: The viability, T/C was 29.3%.

Question: And the viability, T/C (second compound 0.00949 µM, first compound 10 µM)?
Answer: Its viability, T/C is 27.1%.

Question: What about the viability, T/C [13] of the same compound?
Answer: Its viability, T/C is 37.4%.

Question: And the viability, T/C [14]?
Answer: The viability, T/C was 41.1%.

Question: What about the viability, T/C [15] of the same compound?
Answer: The viability, T/C was 30.1%.

Question: What about the viability, T/C [16] of the same compound?
Answer: Its viability, T/C is 26.1%.

Question: What about the viability, T/C (second compound 0.03 µM, first compound 3.16 µM) of the same compound?
Answer: Its viability, T/C is 31.4%.

Question: What about the viability, T/C (second compound 0.03 µM, first compound 10 µM) of the same compound?
Answer: Its viability, T/C is 28.1%.

Question: And the viability, T/C [17]?
Answer: The viability, T/C was 31.5%.

Question: What about the viability, T/C [18] of the same compound?
Answer: The viability, T/C was 31.9%.

Question: What about the viability, T/C [19] of the same compound?
Answer: The viability, T/C was 32.2%.

Question: And the viability, T/C [20]?
Answer: Its viability, T/C is 25.3%.

Question: And the viability, T/C (second compound 0.0949 µM, first compound 3.16 µM)?
Answer: The viability, T/C was 29.8%.

Question: And the viability, T/C (second compound 0.0949 µM, first compound 10 µM)?
Answer: Its viability, T/C is 22.7%.

Question: What about the viability, T/C [21] of the same compound?
Answer: The viability, T/C was 31.9%.

Question: And the viability, T/C [22]?
Answer: Its viability, T/C is 33.7%.

Question: And the viability, T/C [23]?
Answer: The viability, T/C was 32.6%.

Question: What about the viability, T/C [24] of the same compound?
Answer: The viability, T/C was 26.8%.

Question: And the viability, T/C (second compound 0.3 µM, first compound 3.16 µM)?
Answer: Its viability, T/C is 29.5%.

Question: What about the viability, T/C (second compound 0.3 µM, first compound 10 µM) of the same compound?
Answer: Its viability, T/C is 19.6%.

Question: With `CCN1CCN(Cc2ccc(Nc3ncc(F)c(-c4cc(F)c5nc(C)n(C(C)C)c5c4)n3)nc2)CC1` + CCn1c(-c2cccnc2C(C)OC)c2c3cc(ccc31)N1CCOC(CC(NC(=O)C(C(C)C)N(C)C(=O)C3(F)CCN(C(=O)C#CC(C)(C)N(C)C)CC3)C(=O)N3CCCC(N3)C(=O)OCC(C)(C)C2)C1 as the compound, how does the IC50 (second compound 0.000949 µM) read?
Answer: Its IC50 is 0.239 µM.

Question: What about the IC50 (second compound 0.003 µM) of the same compound?
Answer: The IC50 was 0.0132 µM.

Question: What about the IC50 (second compound 0.00949 µM) of the same compound?
Answer: Its IC50 is < 0.00316 µM.

Question: And the IC50 (second compound 0.03 µM)?
Answer: The IC50 was < 0.00316 µM.

Question: What about the IC50 (second compound 0.0949 µM) of the same compound?
Answer: Its IC50 is < 0.00316 µM.

Question: And the IC50 (second compound 0.3 µM)?
Answer: The IC50 was < 0.00316 µM.

Question: And the viability, T/C (second compound 0.000949 µM, first compound 0.00316 µM)?
Answer: Its viability, T/C is 72.8%.

Question: What about the viability, T/C (second compound 0.000949 µM, first compound 0.01 µM) of the same compound?
Answer: The viability, T/C was 68.7%.

Question: What about the viability, T/C [1] of the same compound?
Answer: Its viability, T/C is 70.3%.

Question: What about the viability, T/C [2] of the same compound?
Answer: The viability, T/C was 54.4%.

Question: And the viability, T/C [3]?
Answer: The viability, T/C was 44.9%.

Question: What about the viability, T/C [4] of the same compound?
Answer: Its viability, T/C is 52.2%.

Question: And the viability, T/C (second compound 0.003 µM, first compound 0.00316 µM)?
Answer: The viability, T/C was 60%.

Question: What about the viability, T/C (second compound 0.003 µM, first compound 0.01 µM) of the same compound?
Answer: The viability, T/C was 52.6%.

Question: What about the viability, T/C [5] of the same compound?
Answer: The viability, T/C was 48.2%.

Question: What about the viability, T/C [6] of the same compound?
Answer: Its viability, T/C is 39.2%.

Question: What about the viability, T/C [7] of the same compound?
Answer: Its viability, T/C is 43%.

Question: What about the viability, T/C [8] of the same compound?
Answer: Its viability, T/C is 47.4%.

Question: What about the viability, T/C (second compound 0.00949 µM, first compound 0.00316 µM) of the same compound?
Answer: The viability, T/C was 49.7%.

Question: And the viability, T/C (second compound 0.00949 µM, first compound 0.01 µM)?
Answer: Its viability, T/C is 41.7%.

Question: And the viability, T/C [9]?
Answer: The viability, T/C was 38.9%.

Question: And the viability, T/C [10]?
Answer: The viability, T/C was 34.5%.

Question: And the viability, T/C [11]?
Answer: The viability, T/C was 36.6%.

Question: And the viability, T/C [12]?
Answer: The viability, T/C was 43.4%.

Question: And the viability, T/C (second compound 0.03 µM, first compound 0.00316 µM)?
Answer: The viability, T/C was 37.6%.

Question: What about the viability, T/C (second compound 0.03 µM, first compound 0.01 µM) of the same compound?
Answer: Its viability, T/C is 37.6%.

Question: What about the viability, T/C [13] of the same compound?
Answer: The viability, T/C was 34.3%.

Question: What about the viability, T/C [14] of the same compound?
Answer: Its viability, T/C is 35.3%.

Question: And the viability, T/C [15]?
Answer: Its viability, T/C is 43.8%.

Question: What about the viability, T/C [16] of the same compound?
Answer: Its viability, T/C is 45.9%.

Question: And the viability, T/C (second compound 0.0949 µM, first compound 0.00316 µM)?
Answer: Its viability, T/C is 39.6%.

Question: What about the viability, T/C (second compound 0.0949 µM, first compound 0.01 µM) of the same compound?
Answer: The viability, T/C was 34.4%.

Question: What about the viability, T/C [17] of the same compound?
Answer: The viability, T/C was 34.5%.

Question: What about the viability, T/C [18] of the same compound?
Answer: The viability, T/C was 32.1%.

Question: What about the viability, T/C [19] of the same compound?
Answer: The viability, T/C was 38.9%.

Question: What about the viability, T/C [20] of the same compound?
Answer: Its viability, T/C is 48.8%.

Question: What about the viability, T/C (second compound 0.3 µM, first compound 0.00316 µM) of the same compound?
Answer: Its viability, T/C is 30.8%.

Question: And the viability, T/C (second compound 0.3 µM, first compound 0.01 µM)?
Answer: Its viability, T/C is 32.1%.

Question: And the viability, T/C [21]?
Answer: Its viability, T/C is 32.1%.

Question: What about the viability, T/C [22] of the same compound?
Answer: The viability, T/C was 28.6%.

Question: And the viability, T/C [23]?
Answer: The viability, T/C was 36.1%.

Question: What about the viability, T/C [24] of the same compound?
Answer: Its viability, T/C is 41.8%.
